Measured values published in patent US5631265A, “8-substituted tetrahydro-beta-carbolines” (Eli Lilly and Company, priority 1995, dated 1997).
Like-named read-outs stand apart in the source and are kept apart here.

Key:
[1] = biological target: T1, cloned rat 5-HT2B receptor (Rattus norvegicus, UniProt P30994); test: Radioligand binding, [3H]5-HT, cloned rat 5-HT2B receptor (Table I)
T1 construct: expressed in transfected cells
Procedure: Radioligand Binding Studies
Membrane preparation from transformed cells. Suspension cells expressing the cloned rat 5-HT2B receptor were harvested by centrifugation at 2,200 ×g for 15 min at 4° C. Kursar, J. D., D. L. Nelson, D. B. Wainscott, M. L. Cohen, and M. Baez, Mol. Pharmacol., 42: 549-557 (1992). Membranes for the binding assays were prepared by vortexing the pellet in 50 mM Tris-HCl, pH 7.4 (0.5×10^9 cells/30 ml). The tissue suspension was then centrifuged at 39,800 ×g for 10 min at 4° C. This procedure was repeated for a total of three washes, with a 10 minute incubation at 37° C. between the first and second wash. The final pellet was homogenized in 67 mM Tris-HCl, pH 7.4 (at 20-40 and 12.5 million cells/ml, original cell number, for cells expressing low and relatively high levels of the 5-HT2B receptor, respectively) using a Tissumizer (Tekmar, Cincinnati, Ohio), setting 65 for 15 seconds.
(§1) [^3 H]5-HT binding studies. Binding assays were automated using a Biomek 1000 (Beckman instruments, Fullerton, Calif.) and were performed in triplicate in 0.8 ml total volume. Membrane suspension, 200 μl, (0.04-0.27 mg protein) and 200 μl of drug dilution in water were added to 400 μl of 67 mM Tris-HCl, pH 7.4, containing [^3 H]5-HT, pargyline, CaCl2, and L-ascorbic acid. Final concentrations of pargyline, CaCl2 and L-ascorbic acid were 10 μM, 3 mM and 0.1%, respectively. Tubes were incubated at 37° C. for 15 min or at 0° C. for 2 hours (binding equilibria were verified for both of these conditions), then rapidly filtered using a Brandel cell harvester (Model MB-48R; Brandel, Gaithersburg, Md.) through Whatman GF/B filters which had been presoaked in 0.5% polyethylenimine and precooled with ice-cold 50 mM Tris-HCl, pH 7.4. The filters were then washed rapidly four times with one ml ice-cold 50 mM Tris-HCl, pH 7.4. The amount of [^3 H]5-HT trapped on the filters was determined by liquid scintillation spectrometry (Ready Protein and Beckman automated using a Biomek 1000 (Beckman Instruments, Fullerton, Calif.) and were performed in triplicate in 0.8 ml total volume. Membrane suspension, 200 μl, (0.04-0.27 mg protein) and 200 μl of drug dilution in water were added to 400 μl of 67 mM Tris-HCl, pH 7.4, containing [^3 H]5-HT, pargyline, CaCl2, and L-ascorbic acid. Final concentrations of pargyline, CaCl2 and L-ascorbic acid were 10 μM, 3 mM and 0.1%, respectively. Tubes were incubated at 37° C. for 15 min or at 0° C. for 2 hours (binding equilibria were verified for both of these conditions), then rapidly filtered using a Brandel cell harvester (Model MB-48R; Brandel, Gaithersburg, Md.) through Whatman GF/B filters which had been presoaked in 0.5% polyethylenimine and precooled with ice-cold 50 mM Tris-HCl, pH 7.4. The filters were then washed rapidly four times with one ml ice-cold 50 mM Tris-HCl, pH 7.4. The amount of [^3 H]5-HT trapped on the filters was determined by liquid scintillation spectrometry (Ready Protein and Beckman determined for best fit to a one-site or a two-site binding model using a partial E-test. De Lean, A., A. A. Hancock, and R. J. Lefkowitz, Mol. Pharmacol., 21:5-16 (1981). The following equation was used for a one-site binding model, [formula] where Bound=amount of [^3 H]5-HT specifically bound, Bmax =maximum number of binding sites, Kd =equilibrium dissociation constant and [L]=free concentration of [^3 H]5-HT, or a two-site binding model, [formula] where Bound=amount of [^3 H]5-HT specifically bound, Bmax1 =maximum number of high affinity binding sites, Bmax2 =maximum number of low affinity binding sites, Kd1 =equilibrium dissociation constant for the high affinity site, Kd2 =equilibrium dissociation constant for the low affinity site and [L]=free concentration of [^3 H]5-HT. […]

5-HT2C receptor [2] = biological target: T2, 5-HT2C receptor (Rattus norvegicus, UniProt P08909); test: Radioligand binding, Rat 2C (Table I)
T2 sequence (P08909 33-460): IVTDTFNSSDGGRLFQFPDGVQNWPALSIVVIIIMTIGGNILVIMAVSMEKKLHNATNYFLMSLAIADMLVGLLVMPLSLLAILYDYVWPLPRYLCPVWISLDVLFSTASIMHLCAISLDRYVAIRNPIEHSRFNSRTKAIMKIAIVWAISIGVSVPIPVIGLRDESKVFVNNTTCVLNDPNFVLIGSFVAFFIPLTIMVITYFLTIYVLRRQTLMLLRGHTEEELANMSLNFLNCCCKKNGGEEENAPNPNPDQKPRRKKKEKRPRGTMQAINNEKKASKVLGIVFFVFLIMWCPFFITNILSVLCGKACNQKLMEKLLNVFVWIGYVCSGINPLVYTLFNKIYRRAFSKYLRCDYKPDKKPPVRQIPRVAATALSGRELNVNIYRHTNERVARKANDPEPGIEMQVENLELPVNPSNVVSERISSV
Procedure: as §1, with “7.4.” for “7.4. The filters were then washed rapidly four times with one ml ice-cold 50 mM Tris-HCl, pH 7.4. The amount of [^3 H]5-HT trapped on the filters was determined by liquid scintillation spectrometry (Ready Protein and Beckman determined for best fit to a one-site or a two-site binding model using a partial E-test. De Lean, A., A. A. Hancock, and R. J. Lefkowitz, Mol. Pharmacol., 21:5-16 (1981). The following equation was used for a one-site binding model, [formula] where Bound=amount of [^3 H]5-HT specifically bound, Bmax =maximum number of binding sites, Kd =equilibrium dissociation constant and [L]=free concentration of [^3 H]5-HT, or a two-site binding model, [formula] where Bound=amount of [^3 H]5-HT specifically bound, Bmax1 =maximum number of high affinity binding sites, Bmax2 =maximum number of low affinity binding sites, Kd1 =equilibrium dissociation constant for the high affinity site, Kd2 =equilibrium dissociation constant for the low affinity site and [L]=free concentration of [^3 H]5-HT.”
(§2) Compounds of this invention were tested using the described in vitro assay. Results of the radioligand binding experiments are illustrated in Table I. The values reported in Table I are expressed as Ki calculated as described infra.

5-HT2C receptor [3] = biological target: T3, 5-HT2C receptor (Homo sapiens, UniProt P28335); test: Radioligand binding, Human 2C (Table I)
T3 sequence (P28335 33-458): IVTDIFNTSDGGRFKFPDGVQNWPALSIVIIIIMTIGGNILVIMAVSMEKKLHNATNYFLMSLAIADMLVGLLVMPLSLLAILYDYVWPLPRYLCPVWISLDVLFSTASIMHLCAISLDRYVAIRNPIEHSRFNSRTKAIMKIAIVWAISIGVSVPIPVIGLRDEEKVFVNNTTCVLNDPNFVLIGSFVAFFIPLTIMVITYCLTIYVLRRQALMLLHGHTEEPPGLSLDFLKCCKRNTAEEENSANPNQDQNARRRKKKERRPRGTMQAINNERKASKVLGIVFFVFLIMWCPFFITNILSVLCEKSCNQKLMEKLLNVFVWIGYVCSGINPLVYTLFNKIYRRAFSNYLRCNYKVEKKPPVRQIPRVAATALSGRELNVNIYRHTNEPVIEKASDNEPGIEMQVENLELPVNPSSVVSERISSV
Procedure: as §1, with “7.4.” for “7.4. The filters were then washed rapidly four times with one ml ice-cold 50 mM Tris-HCl, pH 7.4. The amount of [^3 H]5-HT trapped on the filters was determined by liquid scintillation spectrometry (Ready Protein and Beckman determined for best fit to a one-site or a two-site binding model using a partial E-test. De Lean, A., A. A. Hancock, and R. J. Lefkowitz, Mol. Pharmacol., 21:5-16 (1981). The following equation was used for a one-site binding model, [formula] where Bound=amount of [^3 H]5-HT specifically bound, Bmax =maximum number of binding sites, Kd =equilibrium dissociation constant and [L]=free concentration of [^3 H]5-HT, or a two-site binding model, [formula] where Bound=amount of [^3 H]5-HT specifically bound, Bmax1 =maximum number of high affinity binding sites, Bmax2 =maximum number of low affinity binding sites, Kd1 =equilibrium dissociation constant for the high affinity site, Kd2 =equilibrium dissociation constant for the low affinity site and [L]=free concentration of [^3 H]5-HT.”
as §2

5-HT2B receptor = 5-HT2B receptor (Homo sapiens, UniProt P41595); test: Radioligand binding, Human 2B (Table I)
Procedure: [^3 H]5-HT binding studies. Binding assays were automated using a Biomek 1000 (Beckman instruments, Fullerton, Calif.) and were performed in triplicate in 0.8 ml total volume. Membrane suspension, 200 μl, (0.04-0.27 mg protein) and 200 μl of drug dilution in water were added to 400 μl of 67 mM Tris-HCl, pH 7.4, containing [^3 H]5-HT, pargyline, CaCl2, and L-ascorbic acid. Final concentrations of pargyline, CaCl2 and L-ascorbic acid were 10 μM, 3 mM and 0.1%, respectively. […] The amount of [^3 H]5-HT trapped on the filters was determined by liquid scintillation spectrometry (Ready Protein and Beckman automated using a Biomek 1000 (Beckman Instruments, Fullerton, Calif.) and were performed in triplicate in 0.8 ml total volume. Membrane suspension, 200 μl, (0.04-0.27 mg protein) and 200 μl of drug dilution in water were added to 400 μl of 67 mM Tris-HCl, pH 7.4, containing [^3 H]5-HT, pargyline, CaCl2, and L-ascorbic acid. Final concentrations of pargyline, CaCl2 and L-ascorbic acid were 10 μM, 3 mM and 0.1%, respectively. Tubes were incubated at 37° C. for 15 min or at 0° C. for 2 hours (binding equilibria were verified for both of these conditions), then rapidly filtered using a Brandel cell harvester (Model MB-48R; Brandel, Gaithersburg, Md.) through Whatman GF/B filters which had been presoaked in 0.5% polyethylenimine and precooled with ice-cold 50 mM Tris-HCl, pH 7.4. […]

[4] = cloned rat 5-HT2B receptor, [3H]5-HT, Ki from IC50 by Cheng-Prusoff, read-out: Ki Rat 2B
[5] = Rat 2C, Ki from IC50 by Cheng-Prusoff, read-out: Ki Rat 2C
[6] = Human 2C, Ki from IC50 by Cheng-Prusoff, read-out: Ki Human 2C

T1 sequence (P30994 whole entry): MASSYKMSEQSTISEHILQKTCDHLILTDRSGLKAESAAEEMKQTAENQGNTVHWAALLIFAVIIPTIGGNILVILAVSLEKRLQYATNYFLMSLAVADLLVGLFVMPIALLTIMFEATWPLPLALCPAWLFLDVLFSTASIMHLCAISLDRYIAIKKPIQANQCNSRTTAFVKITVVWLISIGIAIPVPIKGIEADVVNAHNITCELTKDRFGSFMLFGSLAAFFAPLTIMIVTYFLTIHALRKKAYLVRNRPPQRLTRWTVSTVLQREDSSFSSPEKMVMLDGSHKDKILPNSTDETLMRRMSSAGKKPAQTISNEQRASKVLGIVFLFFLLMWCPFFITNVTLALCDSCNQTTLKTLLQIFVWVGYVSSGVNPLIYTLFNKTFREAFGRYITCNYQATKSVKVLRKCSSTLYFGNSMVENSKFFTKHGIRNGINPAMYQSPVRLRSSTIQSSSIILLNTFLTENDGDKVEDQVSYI
Chain of 5-HT2B receptor (P41595 whole entry): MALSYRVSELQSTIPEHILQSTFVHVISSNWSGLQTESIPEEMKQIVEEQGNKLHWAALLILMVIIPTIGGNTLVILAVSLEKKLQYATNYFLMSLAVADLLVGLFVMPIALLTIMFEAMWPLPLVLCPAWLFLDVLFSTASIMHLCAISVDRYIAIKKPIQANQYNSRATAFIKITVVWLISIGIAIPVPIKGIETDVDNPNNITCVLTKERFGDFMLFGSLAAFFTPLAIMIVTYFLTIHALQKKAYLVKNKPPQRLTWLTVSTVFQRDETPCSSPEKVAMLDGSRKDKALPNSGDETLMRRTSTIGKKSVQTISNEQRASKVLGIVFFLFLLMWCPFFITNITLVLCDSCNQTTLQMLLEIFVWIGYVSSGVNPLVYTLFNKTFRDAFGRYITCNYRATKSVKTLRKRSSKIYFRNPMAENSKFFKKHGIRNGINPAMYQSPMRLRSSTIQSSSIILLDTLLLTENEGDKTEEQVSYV

| SMILES | Ki [1] [nM] | Ki [1, 4] [nM] | further results |
| --- | --- | --- | --- |
| COc1cccc2c3c([nH]c12)CN(C)CC3 [Example 4, 8-methoxy-2(N)-methyl-1,2,3,4-tetrahydro-9H-pyrido[3,4b]-indole] | 71.7 | – | – |
| Fc1cc(F)c2[nH]c3c(c2c1)CCNC3 [Example 9, 6,8-difluoro-1,2,3,4-tetrahydro-9H-pyrido[3,4b]-indole] | 57.9 | – | – |
| COc1cccc2c3c([nH]c12)CNCC3 [Example 2, 8-methoxy-1,2,3,4-tetrahydro-9H-pyrido[3,4b]-indole] | 34.5 | – | – |
| Cc1ccc2c3c([nH]c2c1C)CNCC3 [Example 7, 7,8-dimethyl-1,2,3,4-tetrahydro-9H-pyrido[3,4b]-indole] | – | 15.8 | – |
| Brc1cccc2c3c([nH]c12)CNCC3 [Example 10, 8-bromo-1,2,3,4-tetrahydro-9H-pyrido[3,4b]-indole] | 6.2 | – | Ki (5-HT2C receptor [2]): 22.4 nM; Ki (5-HT2C receptor [3]): 13.2 nM; Ki (5-HT2B receptor): 9.68 nM |
| CN1CCc2c([nH]c3ccc(O)cc23)C1 [Example 6] | – | 4610 | – |
| COc1cccc2c3c([nH]c12)CN(CC1CC1)CC3 [Example 5, 8-methoxy-2(N)-cyclopropylmethyl-1,2,3,4-tetrahydro-9H-pyrido[3,4b]-indole] | 97.5 | – | – |
| CCCN1CCc2c([nH]c3c(OC)cccc23)C1 [Example 3, 8-methoxy-2(N)-propy1,2,3,4-tetrahydro-9H-pyrido[3,4b]-indole] | 114 | – | – |
| Cc1ccc2c3c([nH]c2c1Br)CNCC3 [Example 1, 7-methyl-8-bromo-1,2,3,4-tetrahydro-9H-pyrido[3,4b]-indole] | – | 3.17 | Ki (5-HT2C receptor [2]; [5]): 14.2 nM; Ki (5-HT2C receptor [3]; [6]): 18.2 nM |
| Cc1cc(Br)c2[nH]c3c(c2c1)CCNC3 [Example 8, 6-methyl-8-bromo-1,2,3,4-tetrahydro-9H-pyrido[3,4b]-indole] | – | 14 | Ki (5-HT2C receptor [2]; [5]): 34.9 nM; Ki (5-HT2C receptor [3]; [6]): 38.6 nM; Ki (5-HT2B receptor; Human 2B, Ki from IC50 by Cheng-Prusoff, read-out: Ki Human 2B): 16.4 nM |
